As usually defined, the Kd is the constant that tells how readily two partners part at equilibrium.

The values below come from article PMC6152123, “Sites for Dynamic Protein-Carbohydrate Interactions of O- and C-Linked Mannosides on the E. coli FimH Adhesin” (Molecules : A Journal of Synthetic Chemistry and Natural …, 2017).

Where two headings read alike, the source gives them in different places.

The target of assay [1] is T1, FimH lectin domain (Escherichia coli, UniProt P08191). The assay can be described thus: biochemical. The class given is binding, E. coli strain J96. The settings on record: for fold by which inhibition potential exceeds parent 115: Table 5; for Kd SPR (nM): Table S2.
The target of another assay is FimH. The settings on record: Table S2; read-out: Kd ITC (converted); cited from earlier work.
The target of assay [2] is T1, FimH lectin domain. The following applies: cited from earlier work.
[3] abbreviates: Kd (nM), Table 4, SPR detection, sulfonamide and amide spacers.
Setting [4] is: Kd (nM), Table 5, SPR, C-linked mannopyranosides.
The mark [5] stands for this setting: Kd SPR (nM), solution affinity by SPR competition, Tables 1-3.
The mark [6] stands for this setting: Table 5, SPR, C-linked mannopyranosides.

T1 sequence (P08191 22-179 limits assumed): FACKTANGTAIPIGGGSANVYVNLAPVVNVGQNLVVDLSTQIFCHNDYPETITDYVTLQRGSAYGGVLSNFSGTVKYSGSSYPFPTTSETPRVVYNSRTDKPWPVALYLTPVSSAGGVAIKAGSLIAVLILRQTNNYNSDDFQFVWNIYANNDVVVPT

`O=[N+]([O-])c1ccc(S(=O)(=O)NCCO[C@H]2O[C@H](CO)[C@@H](O)[C@H](O)[C@@H]2O)cc1` [Compound 71] registered a Kd at FimH lectin domain [1] (setting [3]) of 408 ± 52 nM.

`Cc1ccc(S(=O)(=O)NCCO[C@H]2O[C@H](CO)[C@@H](O)[C@H](O)[C@@H]2O)cc1` [Compound 72] showed a Kd at FimH lectin domain [1] (setting [3]) of 168 ± 64 nM. As to `CC(C)(C)c1ccc(S(=O)(=O)NCCO[C@H]2O[C@H](CO)[C@@H](O)[C@H](O)[C@@H]2O)cc1` [Compound 73], binding on FimH lectin domain [1] (setting [3]) was characterised by a dissociation constant (Kd) of 122 ± 11 nM.

Turning to `CC(C)c1cc(C(C)C)c(S(=O)(=O)NCCO[C@H]2O[C@H](CO)[C@@H](O)[C@H](O)[C@@H]2O)c(C(C)C)c1` [Compound 74], the affinity on FimH lectin domain [1] (setting [3]), expressed as Kd, was 37 ± 5 nM. The compound `O=S(=O)(NCCO[C@H]1O[C@H](CO)[C@@H](O)[C@H](O)[C@@H]1O)c1cccc2ccccc12` [Compound 75] came in with a Kd at FimH lectin domain [1] (setting [3]) of 148 ± 18 nM.

On to `C=CC[C@H]1O[C@H](CO)[C@@H](O)[C@H](O)[C@@H]1O` [Compound 78], for which binding on FimH lectin domain [1] (setting [4]) was put at a Kd of 118 ± 20 nM. On to `O=C(C[C@H]1O[C@H](CO)[C@@H](O)[C@H](O)[C@@H]1O)Nc1ccccc1` [Compound 91], for which, on FimH lectin domain [1] (setting [3]), the Kd stood at 372 ± 26 nM. Same read-out and setting: as for `O=C(C[C@H]1O[C@H](CO)[C@@H](O)[C@H](O)[C@@H]1O)NCc1ccccc1` [Compound 92], the figure is 397 ± 83 nM. `O=C(C[C@H]1O[C@H](CO)[C@@H](O)[C@H](O)[C@@H]1O)NCCCc1ccccc1` [Compound 93] displayed a Kd at FimH lectin domain [1] (setting [3]) of 105 ± 44 nM. Further, the “fold rise of FimH inhibitory capacity versus 91 and 92” value on FimH lectin domain [1] (SPR Kd) was determined as 4 fold. `CC(=O)Nc1ccc(NC(=O)C[C@H]2O[C@H](CO)[C@@H](O)[C@H](O)[C@@H]2O)cc1` [Compound 94] had a Kd on FimH lectin domain [1] (setting [3]) of 227 ± 54 nM.

At FimH lectin domain [1] (setting [3]), `O=C(C[C@H]1O[C@H](CO)[C@@H](O)[C@H](O)[C@@H]1O)Nc1ccc(O)cc1` [Compound 95] displayed a Kd of 328 ± 63 nM. The compound `O=C(C[C@H]1O[C@H](CO)[C@@H](O)[C@H](O)[C@@H]1O)NCCc1ccc(O)cc1` [Compound 96] registered a Kd on FimH lectin domain [1] (setting [3]) of 970 ± 382 nM. As to `OC[C@H]1O[C@H](CCCSCc2ccccc2)[C@@H](O)[C@@H](O)[C@@H]1O` [Compound 106], binding at FimH lectin domain [1] (setting [5]) was characterised by a dissociation constant (Kd) of 25 ± 6.3 nM. Same read-out and setting: as for `CCCCSCCC[C@H]1O[C@H](CO)[C@@H](O)[C@H](O)[C@@H]1O` [Compound 107], the figure is 22 ± 2.8 nM; as for `CCCSCCC[C@H]1O[C@H](CO)[C@@H](O)[C@H](O)[C@@H]1O` [Compound 108], 36 ± 9 nM. Still for that read-out and setting: for `CCSCCC[C@H]1O[C@H](CO)[C@@H](O)[C@H](O)[C@@H]1O` [Compound 109] the value was 78 ± 5.6 nM; for `CC(C)SCCC[C@H]1O[C@H](CO)[C@@H](O)[C@H](O)[C@@H]1O` [Compound 110], 32 ± 4.1 nM. Consider `OC[C@H]1O[C@H](C/C=C/c2ccccc2)[C@@H](O)[C@@H](O)[C@@H]1O` [Compound 115], for which the affinity on FimH lectin domain [1] (setting [4]), expressed as Kd, was 182 ± 25 nM. Moreover, the “fold more active than amide-linked analog 91” value on FimH lectin domain [1] (SPR Kd) is 2 fold. `OC[C@H]1O[C@H](C/C=C/c2ccc(-c3ccccc3)cc2)[C@@H](O)[C@@H](O)[C@@H]1O` [Compound 116]: the values for the dissociation constant Kd at FimH and at FimH lectin domain [1] (setting [4]) were 58 ± 14 nM and 17 ± 3.5 nM, respectively. Also, at FimH lectin domain [1] (SPR Kd), the “fold by which inhibition potential exceeds parent 115” value is ~4 fold. Consider `OC[C@H]1O[C@H](C/C=C/c2ccccc2-c2ccccc2)[C@@H](O)[C@@H](O)[C@@H]1O` [Compound 117], for which, at FimH lectin domain [1] (setting [4]), the affinity, expressed as Kd, was 6.9 ± 5.7 nM. On FimH lectin domain [1] (SPR Kd), the “fold by which inhibition potential exceeds parent 115” value was ~26 fold. Consider `OC[C@H]1O[C@H](C/C=C/c2cccc3ccccc23)[C@@H](O)[C@@H](O)[C@@H]1O` [Compound 118], for which the Kd at FimH is 23 ± 5.5 nM. The “Kd (nM)” value on FimH lectin domain [1] (setting [6]) is on record as “nf”. Besides, the “Kd SPR (nM)” value at FimH lectin domain [1] was “nf”. For the compound `OC[C@H]1O[C@H](CCCc2ccccc2)[C@@H](O)[C@@H](O)[C@@H]1O` [Compound 119], the Kd at FimH lectin domain [1] (setting [4]) was 49 ± 5.3 nM. In the case of `OC[C@H]1O[C@H](CCCc2ccc(-c3ccccc3)cc2)[C@@H](O)[C@@H](O)[C@@H]1O` [Compound 120], the “Kd (nM)” value on FimH lectin domain [1] (setting [6]) is recorded as “nf”. Further, the “Kd SPR (nM)” value on FimH lectin domain [1] is “nf”. In turn, `OC[C@H]1O[C@H](CCCc2ccccc2-c2ccccc2)[C@@H](O)[C@@H](O)[C@@H]1O` [Compound 121] yielded a Kd at FimH lectin domain [1] (setting [4]) of 123 ± 21 nM. Take `OC[C@H]1O[C@H](CCCc2cccc3ccccc23)[C@@H](O)[C@@H](O)[C@@H]1O` [Compound 122]: on FimH lectin domain [1] (setting [6]), the “Kd (nM)” value is “nf”. The “Kd SPR (nM)” value at FimH lectin domain [1] is on record as “nf”. On FimH lectin domain [1] (setting [4]), `CCC[C@H]1O[C@H](CO)[C@@H](O)[C@H](O)[C@@H]1O` [Compound 123] yielded a Kd of 266 ± 26 nM. As for `CCCCCCO[C@H]1O[C@H](CO)[C@@H](O)[C@H](O)[C@@H]1O` [hexyl], at FimH lectin domain [2] (solution affinity by SPR, read-out: Kd SPR), the Kd is 10 nM.

As to `CC(=O)N[C@H]1[C@H](O[C@H]2[C@H](O)[C@@H](NC(C)=O)C(O)O[C@@H]2CO)O[C@H](CO)[C@@H](O[C@@H]2O[C@H](CO[C@H]3O[C@H](CO)[C@@H](O)[C@H](O)[C@@H]3O)[C@@H](O)[C@H](O[C@H]3O[C@H](CO)[C@@H](O)[C@H](O)[C@@H]3O)[C@@H]2O)[C@@H]1O` (stereo partly drawn) [oligomannoside-3, reference compound], the Kd was 20 nM at FimH lectin domain [2] (highest-affinity natural epitope for FimH, Fab IC10 chip, read-out: Kd) and 20.2 nM on FimH lectin domain [1] (Figure S19, fit of solution affinity model to inhibition curve, read-out: KD). Further, the “KA” value on FimH lectin domain [1] (Figure S19, fit of solution affinity model to inhibition curve) came out at 49462067.1 M⁻¹.
